According to PubChem BioAssay AID330 (DTP/NCI, 2004):
Where “and” joins values, the source holds several entries; their conditions need not be identical. Identical values can stand only once. Inconclusive results and toxic doses are left out.

Test system: P388 leukemia ip, CD2F1 mice, survival T/C
Assay: NCI In Vivo Anticancer Drug Screen. Data for tumor model P388 Leukemia (intraperitoneal) in CD2F1 (CDF1) mice
Settings: endpoint: median survival time, higher = longer survival
In short: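 Mice carrying the transplanted tumor received test compound or vehicle. Survival was recorded in each group, and the value is the treated-group measurement divided by that of the vehicle-treated control group.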

[1] = dose: 100.0 mg/kg/injection, schedule: Q04DX003 (ip), vehicle: saline with Tween-80
[2] = dose: 200.0 mg/kg/injection, schedule: Q04DX003 (ip), vehicle: saline with Tween-80
[3] = dose: 3.13 mg/kg/injection, schedule: Q01DX009 (ip), vehicle: distilled water + Tween-80
[4] = dose: 6.25 mg/kg/injection, schedule: Q01DX009 (ip), vehicle: distilled water + Tween-80
[5] = dose: 12.5 mg/kg/injection, schedule: Q01DX009 (ip), vehicle: distilled water + Tween-80
[6] = dose: 25.0 mg/kg/injection, schedule: Q01DX009 (ip), vehicle: distilled water + Tween-80
[7] = dose: 50.0 mg/kg/injection, schedule: Q01DX009 (ip), vehicle: distilled water + Tween-80
[8] = dose: 100.0 mg/kg/injection, schedule: Q01DX005 (ip), vehicle: saline
[9] = dose: 50.0 mg/kg/injection, schedule: Q01DX005 (ip), vehicle: saline with Tween-80
[10] = dose: 100.0 mg/kg/injection, schedule: Q01DX005 (ip), vehicle: saline with Tween-80
[11] = dose: 200.0 mg/kg/injection, schedule: Q01DX005 (ip), vehicle: saline with Tween-80
[12] = dose: 7.5 mg/kg/injection, schedule: Q01DX005 (ip), vehicle: saline with Tween-80
[13] = dose: 15.0 mg/kg/injection, schedule: Q01DX005 (ip), vehicle: saline with Tween-80
[14] = dose: 60.0 mg/kg/injection, schedule: Q01DX005 (ip), vehicle: saline with Tween-80

CC1(C)N=C(N)N=C(N)N1c1ccc(OCCOc2ccc(S(=O)(=O)F)cc2)c(Cl)c1
T/C (dose: 12.5 mg/kg/injection, schedule: Q04DX003 (ip), vehicle: saline): 159 % of control | T/C (dose: 25.0 mg/kg/injection, schedule: Q04DX003 (ip), vehicle: saline): 181 % of control and 185 % of control | T/C (dose: 50.0 mg/kg/injection, schedule: Q04DX003 (ip), vehicle: saline): 181 % of control and 185 % of control | T/C [1]: 175 % of control | T/C (dose: 100.0 mg/kg/injection, schedule: Q04DX003 (ip), vehicle: saline): 190 % of control and 200 % of control | T/C (dose: 132.0 mg/kg/injection, schedule: Q04DX003 (ip), vehicle: saline with Tween-80): 162 % of control | T/C [2]: 185 % of control | T/C (dose: 200.0 mg/kg/injection, schedule: Q04DX003 (ip), vehicle: saline): 109 % of control

COc1cccc(C=O)c1OC(=O)Oc1ccccc1
T/C [3]: 111 % of control and 95 % of control | T/C [4]: 111 % of control | T/C [5]: 100 % of control and 104 % of control | T/C [6]: 109 % of control and 113 % of control and 114 % of control | T/C [7]: 100 % of control and 103 % of control

Cn1c2ccccc2c2nnc(-n3nc(-c4ccccc4)cc3N)nc21
T/C (dose: 100.0 mg/kg/injection, schedule: Q04DX002 (ip), vehicle: saline with Tween-80): 92 % of control | T/C (dose: 200.0 mg/kg/injection, schedule: Q04DX002 (ip), vehicle: saline with Tween-80): 92 % of control | T/C (dose: 400.0 mg/kg/injection, schedule: Q04DX002 (ip), vehicle: saline with Tween-80): 91 % of control

CCCCS(=O)CC(CO)NC(=O)/C=C/c1c(C)[nH]c(=O)[nH]c1=O (configuration not stated)
T/C (dose: 0.08 mg/kg/injection, schedule: Q01DX009 (ip), vehicle: Klucel (hydroxypropylcellulose) (HPC)): 89 % of control | T/C (dose: 0.15 mg/kg/injection, schedule: Q01DX009 (ip), vehicle: Klucel (hydroxypropylcellulose) (HPC)): 86 % of control | T/C (dose: 0.3 mg/kg/injection, schedule: Q01DX009 (ip), vehicle: Klucel (hydroxypropylcellulose) (HPC)): 103 % of control | T/C (dose: 0.6 mg/kg/injection, schedule: Q01DX009 (ip), vehicle: Klucel (hydroxypropylcellulose) (HPC)): 112 % of control | T/C (dose: 0.6 mg/kg/injection, schedule: Q01DX009 (ip), vehicle: water): 122 % of control | T/C (dose: 4.8 mg/kg/injection, schedule: Q01DX009 (ip), vehicle: water): 153 % of control | T/C (dose: 5.0 mg/kg/injection, schedule: Q01DX009 (ip), vehicle: water): 161 % of control

Cc1ccc(/C=C/C(=O)C(C)CN(C)C)cc1C (configuration not stated)
T/C (dose: 50.0 mg/kg/injection, schedule: Q01DX005 (ip), vehicle: saline): 106 % of control | T/C [8]: 109 % of control

Clc1cccc(-c2nc3ccccc3c3ccccc23)c1
T/C [1]: 100 % of control | T/C [2]: 90 % of control | T/C (dose: 400.0 mg/kg/injection, schedule: Q04DX003 (ip), vehicle: saline with Tween-80): 90 % of control

CC1=CC(O)(CC(N)=O)C=C(C)C1=O
T/C [3]: 100 % of control | T/C [4]: 100 % of control | T/C [5]: 99 % of control | T/C [6]: 100 % of control | T/C [7]: 100 % of control | T/C (dose: 100.0 mg/kg/injection, schedule: Q01DX009 (ip), vehicle: distilled water + Tween-80): 108 % of control | T/C (dose: 200.0 mg/kg/injection, schedule: Q01DX009 (ip), vehicle: distilled water + Tween-80): 108 % of control | T/C (dose: 400.0 mg/kg/injection, schedule: Q01DX009 (ip), vehicle: distilled water + Tween-80): 108 % of control

CCOC(=O)C(C)Oc1ccc(Cl)cc1 (configuration not stated)
T/C (dose: 25.0 mg/kg/injection, schedule: Q01DX009 (ip), vehicle: water): 99 % of control | T/C (dose: 50.0 mg/kg/injection, schedule: Q01DX009 (ip), vehicle: water): 102 % of control | T/C (dose: 100.0 mg/kg/injection, schedule: Q01DX009 (ip), vehicle: water): 102 % of control | T/C (dose: 200.0 mg/kg/injection, schedule: Q01DX009 (ip), vehicle: water): 98 % of control | T/C (dose: 400.0 mg/kg/injection, schedule: Q01DX009 (ip), vehicle: water): 107 % of control

CC(=O)NC1CCCCC1[Se](=O)c1ccccc1 (configuration not stated)
T/C [9]: 108 % of control | T/C [10]: 100 % of control | T/C [11]: 109 % of control

CCN(CC)c1ccc(/C=C2/C=Cc3ccccc32)cc1
T/C (dose: 100.0 mg/kg/injection, schedule: Q01DX009 (ip), vehicle: saline with Tween-80): 105 % of control | T/C (dose: 200.0 mg/kg/injection, schedule: Q01DX009 (ip), vehicle: saline with Tween-80): 100 % of control | T/C (dose: 400.0 mg/kg/injection, schedule: Q01DX009 (ip), vehicle: saline with Tween-80): 95 % of control

ClC1=C(Cl)C2(Cl)C=CC1(Cl)C2
T/C [9]: 106 % of control | T/C [10]: 106 % of control | T/C [11]: 108 % of control

CC1(C)N=c2cc3c(cc2N1c1ccc(Cl)cc1)=Nc1ccccc1N3c1ccc(Cl)cc1
T/C [12]: 99 % of control | T/C [13]: 90 % of control | T/C (dose: 30.0 mg/kg/injection, schedule: Q01DX005 (ip), vehicle: saline with Tween-80): 87 % of control | T/C [14]: 89 % of control

Cc1c(O)c(O)cc[n+]1C1OC(CO)C(O)C1O (configuration not stated)
T/C [8]: 98 % of control | T/C (dose: 200.0 mg/kg/injection, schedule: Q01DX005 (ip), vehicle: saline): 100 % of control | T/C (dose: 400.0 mg/kg/injection, schedule: Q01DX005 (ip), vehicle: saline): 102 % of control

O=C1N=CC2(N=N2)C(=O)N1
T/C (dose: 3.75 mg/kg/injection, schedule: Q01DX005 (ip), vehicle: saline with Tween-80): 161 % of control | T/C [12]: 155 % of control and 168 % of control | T/C [13]: 178 % of control and 190 % of control

O=c1[nH]cc(Cn2cccc3c(=O)ncnc2-3)c(=O)[nH]1
T/C (dose: 100.0 mg/kg/injection, schedule: Q01DX001 (ip), vehicle: suspension in saline): 93 % of control | T/C (dose: 200.0 mg/kg/injection, schedule: Q01DX001 (ip), vehicle: suspension in saline): 102 % of control

COc1cc(N=Nc2cccc(C(=O)O)c2)ccc1N(CCCl)CCCl
T/C (dose: 6.25 mg/kg/injection, schedule: Q01DX009 (ip), vehicle: saline with Tween-80): 106 % of control | T/C (dose: 12.5 mg/kg/injection, schedule: Q01DX009 (ip), vehicle: saline with Tween-80): 121 % of control | T/C (dose: 25.0 mg/kg/injection, schedule: Q01DX009 (ip), vehicle: saline with Tween-80): 152 % of control

NC(N)=NC(N)=Nc1ccc([As](=O)(O)O)c(O)c1
T/C (dose: 22.5 mg/kg/injection, schedule: Q01DX009 (ip), vehicle: saline): 105 % of control | T/C (dose: 25.0 mg/kg/injection, schedule: Q01DX009 (ip), vehicle: saline sonified): 118 % of control | T/C (dose: 33.0 mg/kg/injection, schedule: Q01DX009 (ip), vehicle: saline): 104 % of control | T/C (dose: 45.0 mg/kg/injection, schedule: Q01DX009 (ip), vehicle: saline): 104 % of control | T/C (dose: 50.0 mg/kg/injection, schedule: Q01DX009 (ip), vehicle: saline sonified): 118 % of control | T/C (dose: 50.0 mg/kg/injection, schedule: Q01DX009 (ip), vehicle: saline): 109 % of control | T/C (dose: 75.0 mg/kg/injection, schedule: Q01DX009 (ip), vehicle: saline): 122 % of control | T/C (dose: 90.0 mg/kg/injection, schedule: Q01DX009 (ip), vehicle: saline): 115 % of control | T/C (dose: 180.0 mg/kg/injection, schedule: Q01DX009 (ip), vehicle: saline): 117 % of control | T/C (dose: 360.0 mg/kg/injection, schedule: Q01DX009 (ip), vehicle: saline): 103 % of control

NCC(=O)NCC(=O)NC(Cc1ccc(O)cc1)C(=O)O (configuration not stated)
T/C [9]: 101 % of control | T/C [10]: 96 % of control | T/C [11]: 104 % of control

CC1(C)N=C(N)N=C(N)N1c1cccc(CSc2ccccc2)c1
T/C (dose: 7.5 mg/kg/injection, schedule: Q01DX005 (ip), vehicle: Klucel (hydroxypropylcellulose) (HPC)): 98 % of control | T/C (dose: 15.0 mg/kg/injection, schedule: Q01DX005 (ip), vehicle: Klucel (hydroxypropylcellulose) (HPC)): 103 % of control | T/C (dose: 30.0 mg/kg/injection, schedule: Q01DX005 (ip), vehicle: Klucel (hydroxypropylcellulose) (HPC)): 103 % of control

O=c1cc(O)c2ccc3ccccc3c2o1
T/C [9]: 89 % of control | T/C [10]: 87 % of control | T/C [11]: 92 % of control

O=C(CCCCC(=O)N/N=C/c1ccco1)N/N=C/c1ccco1
T/C [14]: 99 % of control | T/C (dose: 120.0 mg/kg/injection, schedule: Q01DX005 (ip), vehicle: saline with Tween-80): 94 % of control | T/C (dose: 240.0 mg/kg/injection, schedule: Q01DX005 (ip), vehicle: saline with Tween-80): 91 % of control
